Source: US11420956B2, “Ureas having Androgen Receptor degradation activity and uses thereof” (ACCUTAR BIOTECHNOLOGY INC., priority 2019, dated 2022)
Where a chain is given by its changes, count along the chain named.

Key:
[1] = target: T1, androgen receptor (AR) (Homo sapiens, UniProt P10275, T878A); assay: AR degradation in LNCAP cells (Western blot); assay type: cell-based; details: 24 hours after administration
T1 construct: endogenous in cells; host or cells: LNCAP
T1 sequence (P10275 1-920 T878A): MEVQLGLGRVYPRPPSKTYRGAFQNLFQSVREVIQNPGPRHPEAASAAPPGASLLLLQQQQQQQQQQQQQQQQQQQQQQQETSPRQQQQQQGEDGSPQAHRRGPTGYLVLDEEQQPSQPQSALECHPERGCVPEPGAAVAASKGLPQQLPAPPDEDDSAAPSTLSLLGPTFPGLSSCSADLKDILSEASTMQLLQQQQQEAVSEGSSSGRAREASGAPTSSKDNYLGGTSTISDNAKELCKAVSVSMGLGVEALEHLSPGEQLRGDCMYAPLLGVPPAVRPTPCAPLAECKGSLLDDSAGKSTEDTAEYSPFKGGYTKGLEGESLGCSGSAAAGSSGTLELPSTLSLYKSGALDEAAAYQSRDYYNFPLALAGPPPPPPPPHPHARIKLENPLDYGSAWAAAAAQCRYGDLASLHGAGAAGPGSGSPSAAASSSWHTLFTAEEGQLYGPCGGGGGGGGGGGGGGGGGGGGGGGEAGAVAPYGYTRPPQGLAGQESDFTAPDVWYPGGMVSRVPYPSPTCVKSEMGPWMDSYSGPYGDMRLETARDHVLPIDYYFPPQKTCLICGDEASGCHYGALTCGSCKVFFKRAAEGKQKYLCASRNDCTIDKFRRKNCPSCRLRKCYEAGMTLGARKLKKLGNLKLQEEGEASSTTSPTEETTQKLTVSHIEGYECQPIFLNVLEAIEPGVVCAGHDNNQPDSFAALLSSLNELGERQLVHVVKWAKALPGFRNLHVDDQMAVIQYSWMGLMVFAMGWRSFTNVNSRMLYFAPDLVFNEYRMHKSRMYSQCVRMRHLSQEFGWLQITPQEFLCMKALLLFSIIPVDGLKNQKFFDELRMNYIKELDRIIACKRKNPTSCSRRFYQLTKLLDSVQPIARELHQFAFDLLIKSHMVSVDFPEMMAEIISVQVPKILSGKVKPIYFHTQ
How it was run: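 Cells plated in RPMI with 10% FBS overnight, then treated with compound at various concentrations (from 1000× DMSO stocks) for 24 h at 37 °C. AR level measured by Western blot with GAPDH as loading control, infrared-fluorescent detection and band quantification; DC50 is concentration giving 50% AR degradation.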

[2] = target: T2, androgen receptor (AR) (Homo sapiens, UniProt P10275); assay: AR degradation in VCAP cells (Western blot); assay type: cell-based; details: 24 hours after administration
T2 construct: endogenous in cells; host or cells: VCAP
T2 sequence (P10275 1-920): T1 sequence (P10275 1-920 T878A) with A878T
Description: LNCAP, VCAP and 22Rv1 cells were plated in 24-well plates at 1.5×10E5 cells/well in the RPMI growth medium containing 10% FBS and 1% Penicillin Streptomycin, and then incubated at 37° C. overnight. The following day, the test compound was administered to the cells by using 1000× compound stock solution prepared in DMSO at various concentrations. After administration of the compound, the cells were then incubated at 37° C. for 24 hours. Upon completion, the cells were washed with PBS and protein was collected in Laemmli sample buffer (1×; VWR International). Proteins in cell lysate were separated by SDS-PAGE and transferred to Odyssey nitrocellulose membranes (Licor) with iblot® dry blotting transfer system (ThermoFisher). Nonspecific binding was blocked by incubating membranes with Intercept Blocking Buffer (Licor) for 1 hour at room temperature with gentle shaking. The membranes were then incubated overnight at 4° C. with Primary antibodies rabbit anti-AR (1:1,000, Cell Signaling, 5153) and mouse anti-GAPDH (1:5,000, Santa Cruz Biotechnology, sc-47724) diluted in Intercept Blocking Buffer containing 0.1% Tween 20. After washing 3 times with TBS-T, the membranes were incubated with IRDye® […] goat anti-mouse IgG (1:20,000, Licor) or IRDye® […] goat anti-rabbit IgG (1:20,000, Licor) for 1 hour. After TBS-T washes, membranes were rinsed in TBS and scanned on Odyssey® CLx Imaging System (Licor). The bands were quantified using Image Studio™ Software (Licor).
Tables 5 and 6 summarize the androgen receptor (AR) degradative activity of exemplary compounds in LNCAP, VCAP and 22Rv1 cell lines 24 hours after administration. DC50: compound concentration needed for 50% target protein degradation.

Compound	DC50 [1]	DC50 [2]
COc1cc(N2C[C@@H](C)N(C(=O)Nc3cnc(N4CCC(CN5CCN(c6ccc7c(c6)C(=O)N(C6CCC(=O)NC6=O)C7=O)CC5)CC4)nc3)C[C@@H]2C)ccc1C#N (stereo partly drawn) [Compound 1-27, (2R,5S)-4-(4-cyano-3-methoxyphenyl)-N-(2-(4-((4-(2-(2,6-dioxopiperidin-3-yl)-1,3-dioxoisoindolin-5-yl)piperazin-1-yl)methyl)piperidin-1-yl)pyrimidin-5-yl)-2,5-dimethylpiperazine-1-carboxamide]	≤ 10 nM	≤ 10 nM
C[C@@H]1CN(c2ccc(C#N)c(Cl)c2)[C@@H](C)CN1C(=O)Nc1ccc(N2CCC(CN3CCN(c4ccc5c(c4)C(=O)N(C4CCC(=O)NC4=O)C5=O)CC3)CC2)nc1 (stereo partly drawn) [Compound 1-14, (2R,5S)-4-(3-chloro-4-cyanophenyl)-N-(6-(4-((4-(2-(2,6-dioxopiperidin-3-yl)-1,3-dioxoisoindolin-5-yl)piperazin-1-yl)methyl)piperidin-1-yl)pyridin-3-yl)-2,5-dimethylpiperazine-1-carboxamide]	≤ 10 nM	≤ 10 nM
C[C@@H]1CN(c2ccc(C#N)c(C(F)(F)F)c2)[C@@H](C)CN1C(=O)Nc1ccc(N2CCC(CN3CCN(c4ccc5c(c4)C(=O)N(C4CCC(=O)NC4=O)C5=O)CC3)CC2)nc1 (stereo partly drawn) [Compound 1-30, (2R,5S)-4-(4-cyano-3-(trifluoromethyl)phenyl)-N-(6-(4-((4-(2-(2,6-dioxopiperidin-3-yl)-1,3-dioxoisoindolin-5-yl)piperazin-1-yl)methyl)piperidin-1-yl)pyridin-3-yl)-2,5-dimethylpiperazine-1-carboxamide]	≤ 10 nM	≤ 10 nM
C[C@@H]1CN(c2ccc(C#N)c(Cl)c2)[C@@H](C)CN1C(=O)Nc1cnc(N2CCC(CN3CCN(c4ccc5c(c4)C(=O)N(C4CCC(=O)NC4=O)C5=O)CC3)CC2)nc1 (stereo partly drawn) [Compound 1-21, (2R,5S)-4-(3-chloro-4-cyanophenyl)-N-(2-(4-((4-(2-(2,6-dioxopiperidin-3-yl)-1,3-dioxoisoindolin-5-yl)piperazin-1-yl)methyl)piperidin-1-yl)pyrimidin-5-yl)-2,5-dimethylpiperazine-1-carboxamide]	≤ 10 nM	≤ 10 nM
C[C@@H]1CN(c2ccc(C#N)c(C(F)(F)F)c2)[C@@H](C)CN1C(=O)Nc1cnc(N2CCC(CN3CCN(c4ccc5c(c4)C(=O)N(C4CCC(=O)NC4=O)C5=O)CC3)CC2)nc1 (stereo partly drawn) [Compound 1-31, (2R,5S)-4-(4-cyano-3-(trifluoromethyl)phenyl)-N-(2-(4-((4-(2-(2,6-dioxopiperidin-3-yl)-1,3-dioxoisoindolin-5-yl)piperazin-1-yl)methyl)piperidin-1-yl)pyrimidin-5-yl)-2,5-dimethylpiperazine-1-carboxamide]	≤ 10 nM	≤ 10 nM
COc1cc(N2C[C@@H](C)N(C(=O)Nc3ccc(N4CCC(CN5CCN(c6ccc7c(c6)C(=O)N(C6CCC(=O)NC6=O)C7=O)CC5)CC4)nc3)C[C@@H]2C)ccc1C#N (stereo partly drawn) [Compound 1-26, (2R,5S)-4-(4-cyano-3-methoxyphenyl)-N-(6-(4-((4-(2-(2,6-dioxopiperidin-3-yl)-1,3-dioxoisoindolin-5-yl)piperazin-1-yl)methyl)piperidin-1-yl)pyridin-3-yl)-2,5-dimethylpiperazine-1-carboxamide]	≤ 10 nM	≤ 10 nM
COc1cc(N2C[C@@H](C)N(C(=O)Nc3cc(F)c(N4CCC(CN5CCN(c6ccc7c(c6)C(=O)N(C6CCC(=O)NC6=O)C7=O)CC5)CC4)cc3F)C[C@@H]2C)ccc1C#N (stereo partly drawn) [Compound 1-29, (2R,5S)-4-(4-cyano-3-methoxyphenyl)-N-(4-(4-((4-(2-(2,6-dioxopiperidin-3-yl)-1,3-dioxoisoindolin-5-yl)piperazin-1-yl)methyl)piperidin-1-yl)-2,5-difluorophenyl)-2,5-dimethylpiperazine-1-carboxamide]	≤ 10 nM	≤ 10 nM
C[C@@H]1CN(c2ccc(C#N)c(Cl)c2)[C@@H](C)CN1C(=O)Nc1ccc(N2CCC(CN3CCN(c4ccc5c(c4)C(=O)N(C4CCC(=O)NC4=O)C5=O)CC3)CC2)cc1F (stereo partly drawn) [Compound 1-23, (2R,5S)-4-(3-chloro-4-cyanophenyl)-N-(4-(4-((4-(2-(2,6-dioxopiperidin-3-yl)-1,3-dioxoisoindolin-5-yl)piperazin-1-yl)methyl)piperidin-1-yl)-2-fluorophenyl)-2,5-dimethylpiperazine-1-carboxamide]	≤ 10 nM	–
C[C@H]1CN(C(=O)Nc2ccc(N3CCC(CN4CCN(c5ccc6c(c5)C(=O)N(C5CCC(=O)NC5=O)C6=O)CC4)CC3)nc2)CCN1c1ccc(C#N)c2ncccc12 (stereo partly drawn) [Compound 2-15, (3S)-4-(8-cyanoquinolin-5-yl)-N-(6-(4-((4-(2-(2,6-dioxopiperidin-3-yl)-1,3-dioxoisoindolin-5-yl)piperazin-1-yl)methyl)piperidin-1-yl)pyridin-3-yl)-3-methylpiperazine-1-carboxamide]	> 100 nM	–
C[C@@H]1CN(C(=O)Nc2cnc(N3CCC(CN4CCN(c5ccc6c(c5)C(=O)N(C5CCC(=O)NC5=O)C6=O)CC4)CC3)nc2)[C@@H](C)CN1c1ccc(C#N)c(Cl)c1 (stereo partly drawn) [Compound 1-22, (2S,5R)-4-(3-chloro-4-cyanophenyl)-N-(2-(4-((4-(2-(2,6-dioxopiperidin-3-yl)-1,3-dioxoisoindolin-5-yl)piperazin-1-yl)methyl)piperidin-1-yl)pyrimidin-5-yl)-2,5-dimethylpiperazine-1-carboxamide]	> 100 nM	> 100 nM
C[C@@H]1CN(c2ccc(C#N)c3ncccc23)[C@@H](C)CN1C(=O)Nc1ccc(N2CCC(CN3CCN(c4cc5c(cc4F)C(=O)N(C4CCC(=O)NC4=O)C5=O)CC3)CC2)c(F)c1 (stereo partly drawn) [Compound 2-24, (2R,5S)-4-(8-cyanoquinolin-5-yl)-N-(4-(4-((4-(2-(2,6-dioxopiperidin-3-yl)-6-fluoro-1,3-dioxoisoindolin-5-yl)piperazin-1-yl)methyl)piperidin-1-yl)-3-fluorophenyl)-2,5-dimethylpiperazine-1-carboxamide]	> 100 nM	–
